Data: ChEMBL document CHEMBL1126369, “(E)-1-alkyl-[2-(1H-azol-2-yl)vinyl]pyridinium salts: theoretical analysis, synthesis and evaluation of their interaction with choline acetyltransferase” (Bioorg Med Chem Lett, 1992)

Key:
[1] = target: T1, Choline O-acetyltransferase (Gallus gallus) (UniProt Q90YJ9); experiment: Inhibition of chick optic lobe choline acetyltransferase (ChAT) at 10e-4 M
T1 sequence (whole entry): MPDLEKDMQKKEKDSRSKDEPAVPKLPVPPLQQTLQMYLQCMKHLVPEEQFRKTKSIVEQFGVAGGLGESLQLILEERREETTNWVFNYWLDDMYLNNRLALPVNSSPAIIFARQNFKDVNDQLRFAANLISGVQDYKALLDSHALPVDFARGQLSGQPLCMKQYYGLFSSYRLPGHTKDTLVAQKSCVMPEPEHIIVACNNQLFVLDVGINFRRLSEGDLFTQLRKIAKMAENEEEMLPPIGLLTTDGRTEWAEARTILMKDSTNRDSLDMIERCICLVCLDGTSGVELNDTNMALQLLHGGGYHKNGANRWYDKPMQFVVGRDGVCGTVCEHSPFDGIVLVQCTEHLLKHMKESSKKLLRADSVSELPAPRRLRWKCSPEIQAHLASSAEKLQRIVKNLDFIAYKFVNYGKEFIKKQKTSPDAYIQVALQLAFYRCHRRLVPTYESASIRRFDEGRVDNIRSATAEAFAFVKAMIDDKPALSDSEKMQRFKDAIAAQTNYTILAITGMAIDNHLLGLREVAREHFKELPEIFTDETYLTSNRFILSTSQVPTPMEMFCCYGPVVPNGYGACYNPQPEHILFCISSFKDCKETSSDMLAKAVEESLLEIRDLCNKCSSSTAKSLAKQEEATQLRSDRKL

[2] = target: T2, Choline O-acetyltransferase (Gallus gallus, UniProt Q90YJ9); experiment: Compound was tested in vitro for inhibitory activity against chick optic lobe choline acetyltransferase (ChAT)
T2 sequence (Q90YJ9 whole entry): T1 sequence (whole entry)

[3] = target: T2, Choline O-acetyltransferase; experiment: Compound was tested in vitro for inhibitory activity against chick choline acetyltransferase (ChAT)
[4] = target: T3, Choline O-acetyltransferase (Rattus norvegicus, UniProt P32738); experiment: Compound was tested in vitro for inhibitory activity against rat choline acetyltransferase (ChAT)
T3 sequence (P32738 whole entry): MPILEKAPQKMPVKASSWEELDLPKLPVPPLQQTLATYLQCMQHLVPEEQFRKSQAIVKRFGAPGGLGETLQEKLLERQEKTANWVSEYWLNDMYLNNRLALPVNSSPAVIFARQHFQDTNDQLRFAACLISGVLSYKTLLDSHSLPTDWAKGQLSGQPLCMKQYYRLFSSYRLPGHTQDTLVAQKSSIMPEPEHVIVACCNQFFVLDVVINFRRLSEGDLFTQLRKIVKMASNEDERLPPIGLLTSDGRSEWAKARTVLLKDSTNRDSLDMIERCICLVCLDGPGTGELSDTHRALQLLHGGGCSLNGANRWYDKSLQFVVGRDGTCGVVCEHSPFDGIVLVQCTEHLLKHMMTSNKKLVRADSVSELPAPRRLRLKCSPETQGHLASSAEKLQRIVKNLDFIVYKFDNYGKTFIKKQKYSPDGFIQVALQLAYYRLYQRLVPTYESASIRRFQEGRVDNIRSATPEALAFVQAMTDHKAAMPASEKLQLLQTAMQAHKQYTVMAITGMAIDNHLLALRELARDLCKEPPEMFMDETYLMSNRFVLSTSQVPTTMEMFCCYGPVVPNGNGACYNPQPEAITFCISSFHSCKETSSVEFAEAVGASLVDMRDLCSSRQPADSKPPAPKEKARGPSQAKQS

| Structure (SMILES) | inhibition [1] [%] | also measured |
| --- | --- | --- |
| CCCC[n+]1cccc(/C=C/c2nc3cc(C)c(C)cc3[nH]2)c1 | < 1 |  |
| Cc1cc2nc(/C=C/c3cccnc3)[nH]c2cc1C | < 1 |  |
| Cc1cc2nc(/C=C/c3ccc[n+](C)c3)[nH]c2cc1C | < 1 |  |
| C[n+]1ccc(/C=C/c2cccc3ccccc23)cc1 | 73 | IC50 [2]: 40 µM |
| Cc1cc2nc(/C=C/c3cc[n+](C)cc3)[nH]c2cc1C | < 1 |  |
| CCC[n+]1ccc(/C=C/c2cccc3ccccc23)cc1 | 80 | IC50 [2]: 29 µM; IC50 [3]: 58 µM; IC50 [4]: 30 µM |
| Cc1cc2nc(/C=C/c3ccncc3)[nH]c2cc1C | < 1 |  |
| CCCCCCCCCC[n+]1ccc(/C=C/c2nc3cc(C)c(C)cc3[nH]2)cc1 | < 1 |  |

Further lines, with some results ahead:

| inhibition [1] [%] | Structure (SMILES) | also measured |
| --- | --- | --- |
| < 1 | CCCC[n+]1ccc(/C=C/c2nc3cc(C)c(C)cc3[nH]2)cc1 |  |
| < 1 | C[n+]1ccc(/C=N/c2nc3ccccc3[nH]2)cc1 |  |
| 5 | C(=C\c1cccc2ccccc12)/c1ccncc1 |  |
| < 1 | CCCC[n+]1ccc(/C=C/c2ncc[nH]2)cc1 |  |
| 78 | NC(=O)C[n+]1ccc(/C=C/c2cccc3ccccc23)cc1 | IC50 [2]: 37 µM |
